This is an account of results in patent US20260232682A1, “GSPT1 DEGRADER COMPOUNDS” (Captor Therapeutics S.A., priority 2023, published 2026).

Data set [1] addresses T1, [SALL4 ZF2]-[compound]-[CRBN/DDB1] ternary complex (Homo sapiens, UniProt Q96SW2+Q9UJQ4).
T1 construct: SALL4 ZF2
Kind of data set: AlphaLISA assay for off-target recruitment detection, SALL4 ZF2. It is filed as binding. As to conditions: 1 μM compound; normalized to Lenalidomide; read-out: Normalized ternary complex response, SALL4 ZF2. The method, then:
(§1) The ability of the molecular glue compounds of the invention to mediate the proximity of CRBN with its known neo-substrates (shown in Table 3) was assessed using AlphaLISA to detect the formation of a [neo-substrate]-[compound of formula (I)]-[CRBN/DDB1] ternary complex.
(§2) Two types of protein solution were prepared: • neo-substrate, 40 μg/ml AlphaScreen Donor Beads (Table 3) in PBS (10 mM phosphate buffer, 137 mM NaCL, 2.7 mM KCl, pH 7.4) buffer supplemented with Tween-20 (Table 3) and 1 mM DTT, • 200 nM 6×His-CRBN/DDB1, 40 μg/ml AlphaLISA Anti-6×His Acceptor beads in PBS buffer with Tween-20 (Table 3) and 1 mM DTT.
(§3) The prepared solutions were incubated at room temperature for 30 min and then the solution containing the donor beads was mixed with the solution containing the acceptor beads.
(§4) The tested compounds were dispensed onto a white 384-well AlphaPlate 384 SW. DMSO was backfilled to all wells, resulting in a final DMSO content of 2%. Wells containing only DMSO served as background. Next, 10 μl of solution with donor and acceptor beads was added to the wells.
(§5) The plate was sealed with transparent film and shaken using a VibroTurbulator for 60 sec at room temperature, level 3. The plate was then spun down shortly (10 sec, 1000 rcf, room temperature) and incubated at 25° C. for 30 min.
(§6) The read-out was performed with PerkinElmer Enspire Multimode Plate Reader (method for AlphaLISA 384-well low volume, Filterset: λexc=680 nm, λem=615 nm).
(§7) The results were analyzed as follows: • 1) an average of luminescence for background signal was calculated and used as a negative control; • 2) an average of the maximum measured luminescence for reference compound (Table 3) was calculated and used as an internal positive control; • 3) raw luminescence values were normalized against positive and negative controls; • 4) Normalized responses to reference molecular glue were determined.
For orientation: Bead proximity is the source of the signal in Alpha formats.

Data set [2] concerns the target [CK1α]-[compound]-[CRBN/DDB1] ternary complex (Homo sapiens, UniProt P48729+Q96SW2). Description: AlphaLISA assay for off-target recruitment detection, CK1α. It is filed as binding. As to conditions: 1 μM compound; normalized to FPFT-2216; read-out: Normalized ternary complex response, CK1α. The protocol: as §1, §2, §3, §4, §5, §6, §7
The target of data set [3] is T2, [IKZF1 ZF2]-[compound]-[CRBN/DDB1] ternary complex (Homo sapiens, UniProt Q13422+Q96SW2).
T2 construct: IKZF1 ZF2
Description: AlphaLISA assay for off-target recruitment detection, IKZF1 ZF2. Particulars: 1 μM compound; normalized to Lenalidomide; read-out: Normalized ternary complex response, IKZF1 ZF2. The class given is binding. The method, then: as §1, §2, §3, §4, §5, §6, §7

Data set [4] deals with T3, [IKZF2 ZF2]-[compound]-[CRBN/DDB1] ternary complex (Homo sapiens, UniProt Q96SW2+Q9UKS7).
T3 construct: IKZF2 ZF2
Kind of data set: AlphaLISA assay for off-target recruitment detection, IKZF2 ZF2. The class given is binding. As to conditions: 1 μM compound; normalized to Helios modulator; read-out: Normalized ternary complex response, IKZF2 ZF2. The protocol: as §1, §2, §3, §4, §5, §6, §7

Data set [5] has as its target T4, [GSPT1]-[compound of formula (I)]-[CRBN/DDB1] complex (Homo sapiens, UniProt P15170+Q96SW2). Kind of data set: HTRF ternary complex assay (GSPT1). The class given is binding. Particulars: read-out: HTRF ternary complex Average pEC50 by molecule (converted). The method, then: The effect of the molecular glue compounds of the invention on the formation of a ternary complex composed of [GSPT1]-[compound of formula (I)]-[CRBN/DDB1] was investigated.
Mix solution of proteins and reagents was prepared: • 48 nM GSPT1, 52.8 nM 6×His-CRBN/DDB1, 3 nM of Streptavidin-Eu cryptate ([…]) and 6.67 nM of Anti-6×his-d2 ([…]) was prepared in PPI Europium detection buffer (purchased from Cisbio) with 1 mM DTT.
The tested compounds in dose-response were dispensed onto a white 384-well low volume plate (Greiner, 784075). DMSO was backfilled to all wells, resulting in a final DMSO content of 0.5%. Wells containing only DMSO served as background.
The plate was sealed with transparent film and shaken using a VibroTurbulator for 60 sec at level 3.
The plate was then spun down shortly (10 sec, 1000 rcf) and incubated at 25° C. for 180 min.
The read-out was performed with plate reader (Pherastar, BMG Labtech) in time resolved fluorescence mode. Filter settings: TR 337 665 620.
The results were analyzed as follows: • 1) an average of fluorescence for background signal was calculated and used as a negative control; • 2) raw fluorescence values for tested compounds were normalized against negative controls; • 3) saturation curve was fitted to specific binding with Hill slope model; • 4) EC50 and pEC50 values were determined.

For data set [6], the target named is T4, [GSPT1]-[compound of formula (I)]-[CRBN/DDB1] complex. Description: AlphaLISA ternary complex formation assay (GSPT1). Particulars: 0.5 h; 1 μM compound; normalized to reference compound CC-885; read-out: Normalized AlphaLISA ternary complex average signal at 1 μM molecule. It is filed as binding. The method, then:
The effect of the molecular glue compounds of the invention on the formation of a ternary complex composed of [GSPT1]-[compound of formula (I)]-[CRBN/DDB1] was investigated with two methods: AlphaLISA dose response assay or HTRF ternary complex assay.
Two types of protein solution were prepared: • 200 nM biotinylated GSPT1 (Table 3), 40 μg/ml AlphaScreen Streptavidin-coated Donor Beads in HBS (10 mM HEPES, 150 mM NaCL, pH 7.4) buffer with 0.1% Tween-20 and 1 mM DTT, • 200 nM 6×His-CRBN/DDB1, 40 μg/ml AlphaLISA Anti-6×His Acceptor beads in HBS buffer with 0.1% Tween-20 and 1 mM DTT.
as §3, §4, §5, §6
The results were analyzed as follows: • 1) an average of luminescence for background signal was calculated and used as a negative control; • 2) average of the maximum measured luminescence for reference compound (structure shown in Table 3 below) was calculated and used as an internal positive control; • 3) raw luminescence values were normalized against positive and negative controls; • 4) Normalized responses to positive control were determined.

Data set [7] concerns the target CRBN/DDB1 protein complex (Homo sapiens, UniProt Q96SW2). Description: CRBN displacement TR-FRET assay. As to conditions: Thalidomide-Red tracer, 6×His-CRBN/DDB1; read-out: CRBN binding Ki. The method, then: CRBN/DDB1 protein complex was mixed with Thalidomide-Red and a compound to be tested (the “test compound”). The test solution contained PPI Europium detection buffer, 1 mM DTT, 6.8 nM Thalidomide-Red (the tracer), 5 nM 6×His-CRBN/DDB1 protein, 0.5 nM Anti-6× His-Eu cryptate, 1% DMSO. The test solution was added to a 384-well assay plate.
The plate was spun-down (1 min, 1000 rpm, 22° C.) and then shaken using a VibroTurbulator for 30 sec at room temperature (20-25° C.), with the frequency set to level 10. The assay plate with protein and the tracer was incubated for 180 min at room temperature (20-25° C.) prior to read-out with a plate reader. The read-out was performed with plate reader (Pherastar, BMG Labtech) in time resolved fluorescence mode. Filter settings: TR 337 665 620.
The CRBN displacement TR-FRET experiment was carried out with various concentrations of the test compounds in order to measure Ki values.
The Ki values of competitive inhibitors were calculated using the equation based on the IC50 values of relationship between compound concentration and measured […], the Kd value of the Thalidomide-Red and CRBN/DDB1 complex, and the concentrations of the protein and the tracer in the displacement assay (as described by Cheng and Prusoff, Biochem Pharmacol 1973; 22:3099-3108).
In general terms: TR-FRET usually uses a lanthanide donor and a delayed reading to cut background.

Data set [8] in a line: Chemical stability in MV-4-11 medium. Particulars: 37° C., concentration 10 μM.
Description: Next, 500 μL of each solution was transferred to the 96-deep-well plate. Three replicates for each compound were performed. Plate was afterwards incubated at 37° C. with shaking (220 rpm). 50 μL of sample were withdrawn for the each timepoint (0, 1, 3, 6, 24, 48, 72, and 168 hours) and immediately mixed with 50 μL of acetonitrile. Next, samples were centrifuged at 3900 rpm, 10° C. for 20 minutes. 40 μL of supernatant was diluted with 120 μL of acetonitrile containing internal standard (IS) (10 μM), mixed, and analyzed by LC-MS/MS.
Thermo Fisher Scientific Altis+ coupled with a Vanquish system were used for UHPLC-MS/MS analysis. Analytes were separated on a Kinetex XB-C18 2.6 μm, 50×2.1 mm column, using gradient of water with 0.1% (v/v) formic acid (solvent A) and acetonitrile with 0.1% (v/v) formic acid (solvent B): 0.0 min 5% B, 0.5 min 5% B, 1.0 min 70% B, 3.0 min 95% B, 3.5 min 95% B, 3.7 min 5% B, 5 min 5% B. The mobile phase flow rate was set to 0.3 mL/min and the column was kept in 40° C. 1 μL of samples were injected. The MS/MS analysis was performed using SRM mode in positive ionization. Source parameters were set as follow: Ion Source Type H-ESI, Spray Voltage 3800 V, Sheath Gas 50 Arb, Aux Gas 10 Arb, Sweep Gas 1 Arb, Ion Transfer Tube Temp 325° C., Vaporizer Temp 350° C., Collision Gas Pressure 1.5 mTorr, Q1/Q3 Resolution (FWHM) 0.7. Three transitions were monitored for each analyte and for the internal standard:
Quantitation was based on the peak area ratio between the test compound and IS. The amount of compound remaining in the sample was calculated as follow:
The slope of logarithmic curve of percent remaining versus time has been used for calculation of half-life (t_half). First, the elimination constant (k) was calculated using the equation:
Next, half-life (t_half) was calculated using equation:
The subject of a further data set is Hep3B, Kelly, KG-1. Kind of data set: Growth inhibition of cancer cell lines (summary statement). It is filed as cell-based. Particulars: hepatocellular carcinoma (Hep3B), neuroblastoma (Kelly), leukemia (KG-1).

T1 sequence (Q9UJQ4 410-432 limits assumed): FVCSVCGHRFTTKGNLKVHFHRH
T1 sequence (Q96SW2 whole entry): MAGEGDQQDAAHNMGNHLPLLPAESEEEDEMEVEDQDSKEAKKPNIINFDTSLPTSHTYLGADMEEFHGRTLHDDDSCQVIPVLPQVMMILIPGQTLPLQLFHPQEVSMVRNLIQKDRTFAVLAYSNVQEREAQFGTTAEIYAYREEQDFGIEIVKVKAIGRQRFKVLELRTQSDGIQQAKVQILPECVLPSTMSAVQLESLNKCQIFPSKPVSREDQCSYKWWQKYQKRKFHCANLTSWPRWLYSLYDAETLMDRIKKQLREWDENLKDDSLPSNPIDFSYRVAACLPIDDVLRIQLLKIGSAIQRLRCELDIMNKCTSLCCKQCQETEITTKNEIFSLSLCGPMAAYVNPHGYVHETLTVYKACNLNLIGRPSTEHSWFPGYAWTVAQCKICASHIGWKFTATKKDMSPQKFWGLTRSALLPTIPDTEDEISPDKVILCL
T1 sequence (Q16531 whole entry partner): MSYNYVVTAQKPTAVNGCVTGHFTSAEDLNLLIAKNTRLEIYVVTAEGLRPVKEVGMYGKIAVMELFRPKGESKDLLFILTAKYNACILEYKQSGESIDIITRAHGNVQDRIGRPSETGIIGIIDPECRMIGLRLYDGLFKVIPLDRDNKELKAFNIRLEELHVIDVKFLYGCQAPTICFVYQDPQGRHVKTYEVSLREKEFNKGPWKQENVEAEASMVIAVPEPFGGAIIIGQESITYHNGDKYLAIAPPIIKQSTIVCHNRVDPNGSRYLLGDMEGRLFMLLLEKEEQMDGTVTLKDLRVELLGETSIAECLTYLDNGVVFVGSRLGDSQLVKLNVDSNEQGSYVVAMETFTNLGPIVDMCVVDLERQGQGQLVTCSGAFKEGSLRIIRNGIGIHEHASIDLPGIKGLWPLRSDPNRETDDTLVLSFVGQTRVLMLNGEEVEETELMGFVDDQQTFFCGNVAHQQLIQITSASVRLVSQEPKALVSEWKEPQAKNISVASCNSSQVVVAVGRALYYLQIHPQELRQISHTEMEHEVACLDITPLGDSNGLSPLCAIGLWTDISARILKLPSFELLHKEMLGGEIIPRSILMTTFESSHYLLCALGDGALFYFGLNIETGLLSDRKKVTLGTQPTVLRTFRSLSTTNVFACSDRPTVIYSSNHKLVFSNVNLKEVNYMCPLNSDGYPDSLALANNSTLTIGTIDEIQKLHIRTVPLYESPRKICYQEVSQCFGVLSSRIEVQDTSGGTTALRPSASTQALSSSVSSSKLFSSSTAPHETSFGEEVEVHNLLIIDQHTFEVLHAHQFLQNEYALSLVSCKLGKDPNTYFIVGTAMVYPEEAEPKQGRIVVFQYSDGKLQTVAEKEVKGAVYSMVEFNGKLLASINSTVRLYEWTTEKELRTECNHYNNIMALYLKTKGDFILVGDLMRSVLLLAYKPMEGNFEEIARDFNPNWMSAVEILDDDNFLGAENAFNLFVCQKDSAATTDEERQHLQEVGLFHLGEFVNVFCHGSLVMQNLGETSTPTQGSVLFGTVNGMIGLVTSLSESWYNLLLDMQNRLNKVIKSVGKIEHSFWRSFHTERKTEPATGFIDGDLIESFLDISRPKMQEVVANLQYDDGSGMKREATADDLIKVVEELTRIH
T3 sequence (Q9UKS7 140-162 limits assumed): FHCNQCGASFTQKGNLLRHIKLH
T3 sequence (Q96SW2 whole entry): as the sequence (Q96SW2 whole entry) above
T3 sequence (Q16531 whole entry partner): as the sequence (Q16531 whole entry partner) above
T2 sequence (Q13422 145-167 limits assumed): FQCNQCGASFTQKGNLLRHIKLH
T2 sequence (Q96SW2 whole entry): as the sequence (Q96SW2 whole entry) above
T2 sequence (Q16531 whole entry partner): as the sequence (Q16531 whole entry partner) above
T4 sequence (P15170 whole entry): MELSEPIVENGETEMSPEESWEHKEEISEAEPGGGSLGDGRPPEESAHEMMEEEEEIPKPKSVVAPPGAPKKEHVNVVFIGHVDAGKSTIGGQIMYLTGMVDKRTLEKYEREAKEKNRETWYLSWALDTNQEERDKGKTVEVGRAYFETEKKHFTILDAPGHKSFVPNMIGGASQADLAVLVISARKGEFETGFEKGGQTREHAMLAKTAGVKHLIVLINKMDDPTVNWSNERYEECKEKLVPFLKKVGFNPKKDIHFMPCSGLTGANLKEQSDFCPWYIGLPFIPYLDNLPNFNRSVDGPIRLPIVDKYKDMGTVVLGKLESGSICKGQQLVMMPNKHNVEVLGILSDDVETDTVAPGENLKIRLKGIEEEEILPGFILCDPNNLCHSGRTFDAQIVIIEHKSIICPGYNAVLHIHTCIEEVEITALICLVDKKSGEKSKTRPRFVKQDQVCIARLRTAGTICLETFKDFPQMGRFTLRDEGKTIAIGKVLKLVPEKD
T4 sequence (Q96SW2 whole entry): as the sequence (Q96SW2 whole entry) above
T4 sequence (Q16531 whole entry partner): as the sequence (Q16531 whole entry partner) above
Sequence of CRBN/DDB1 protein complex (Q96SW2 whole entry, species assumed): as the sequence (Q96SW2 whole entry) above
Sequence of CRBN/DDB1 protein complex (Q16531 whole entry partner, species assumed): as the sequence (Q16531 whole entry partner) above
Sequence of [CK1α]-[compound]-[CRBN/DDB1] ternary complex (P48729 whole entry): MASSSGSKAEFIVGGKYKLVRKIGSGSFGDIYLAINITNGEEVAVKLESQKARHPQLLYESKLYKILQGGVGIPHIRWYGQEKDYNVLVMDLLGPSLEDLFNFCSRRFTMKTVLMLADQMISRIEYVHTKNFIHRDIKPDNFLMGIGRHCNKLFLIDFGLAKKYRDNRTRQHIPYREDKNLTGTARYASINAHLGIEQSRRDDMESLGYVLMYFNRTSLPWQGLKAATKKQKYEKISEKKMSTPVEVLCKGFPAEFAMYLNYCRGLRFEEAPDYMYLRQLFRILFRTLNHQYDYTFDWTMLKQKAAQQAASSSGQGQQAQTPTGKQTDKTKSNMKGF
Sequence of [CK1α]-[compound]-[CRBN/DDB1] ternary complex (Q96SW2 whole entry): as the sequence (Q96SW2 whole entry) above
Sequence of [CK1α]-[compound]-[CRBN/DDB1] ternary complex (Q16531 whole entry partner): as the sequence (Q16531 whole entry partner) above

As usually defined, the Ki is the equilibrium dissociation constant of an inhibitor or competing ligand from its target. As for `Cc1nc2cc(COC(=O)NC3CCN(c4ccccc4)CC3)ccc2cc1C1CCC(=O)NC1=O` (stereo not shown) [Compound 47, (3-(2,6-dioxopiperidin-3-yl)-2-methylquinolin-7-yl)methyl (1-phenylpiperidin-4-yl)carbamate], the activation at 1 µM in data set [1] is less than 10%; in data set [2] it was less than 10%; in [3] it was less than 10%; in [4] it was less than 10%; in data set [6], 10 to 50%. For the same compound, the EC50 in data set [5] is more than 3160 nM. Also, the inhibitory constant (Ki) in data set [7] was less than 500 nM.

Consider `Cc1nc2ccc(CNC(=O)NC3CCCCC3)cc2cc1N1CCC(=O)NC1=O` [Compound 52, 1-cyclohexyl-3-((3-(2,4-dioxotetrahydropyrimidin-1(2H)-yl)-2-methylquinolin-6-yl)methyl)urea], for which the activation at 1 µM was not below 50% in data set [1]; less than 10% in data set [2]; 25 to 50% in [3]; 10 to 25% in data set [4]; 10 to 50% in [6]. In addition, in [5], the EC50 is 316 to 3160 nM. The Ki in data set [7] is more than 1000 nM.

`Cc1nc2ccc(COC(=O)NC3CCCCC3)cc2cc1N1CCC(=O)NC1=O` [Compound 60, (3-(2,4-dioxotetrahydropyrimidin-1(2H)-yl)-2-methylquinolin-6-yl)methyl cyclohexylcarbamate]: the activation at 1 µM in data set [1] is not below 50%; in [2] it was less than 10%; in [3] it was 10 to 25%; in [4], less than 10%; in data set [6] it was 10 to 50%. The EC50 in data set [5] was 316 to 3160 nM. Moreover, the inhibition constant Ki in [7] fell in the range of 500 to 1000 nM.

Regarding `Cc1ccc(NC(=O)OCc2cc3nc(C)c(C4CCC(=O)NC4=O)cc3cc2C)cc1Cl` (stereo not shown) [Compound 68, (3-(2,6-dioxopiperidin-3-yl)-2,6-dimethylquinolin-7-yl)methyl (3-chloro-4-methylphenyl)carbamate], the activation at 1 µM in [1], in data set [2], in data set [3], in [4] and in [6] was less than 10% throughout. Further, the EC50 in data set [5] was more than 3160 nM. Besides, the Ki in [7] is more than 1000 nM.

Consider `Cc1nc2cccc(N)c2c(=O)n1C1CCC(=O)NC1=O` (stereo not shown) [avadomide], for which, in [8], the “% remaining at 24 hrs” value is on record as “d (5%≤d<10%)” and the “t_half [hours]” value is “C (5 hrs≤C<10 hrs)”.

Take `O=C1CCC(N2Cc3cc(CNC(=O)C(F)(F)c4ccc(Cl)cc4)ccc3C2=O)C(=O)N1` (stereo not shown) [eragidomide]: the “t_half [hours]” value in [8] is “D (D<5 hrs)”.

On to `Nc1cccc2c1CN(C1CCC(=O)NC1=O)C2=O` (stereo not shown) [lenalidomide], for which, in the data set on Hep3B, Kelly, KG-1, the “inhibition of growth of cancer types” value was “inactive”. Further, in data set [8], the “% remaining at 24 hrs” value is on record as “e (e<5%)” and the “t_half [hours]” value is “D (D<5 hrs)”.

As for `Nc1cccc2c1C(=O)N(C1CCC(=O)NC1=O)C2=O` (stereo not shown) [pomalidomide], the “inhibition of growth of cancer types” value with Hep3B, Kelly, KG-1 was “inactive”. Moreover, in data set [8], the “% remaining at 24 hrs” value is listed as “e (e<5%)” and the “t_half [hours]” value is given as “D (D<5 hrs)”.
